≈ marks a conversion by molar mass, not a printed value. Each block holds one compound with its values, some of them ahead of it.
Assays:
Assay type in all cases: physicochemical
[1] = Estimated solubility measurement in selected solvents at room temperature; settings: thermodynamic from solid
Description: Preliminary solubility of Compound (I) was estimated in 13 selected solvents at room temperature. About 2 mg of Compound (I) was weighed into sample vials and different solvents were added with vortex, 20-200 μL per time, until the drug solution was clear by observation. The volume of solvent was up to 1000 V. Then, the estimated solubility (mg/mL) was calculated.

[2] = Inter-conversion study by competitive slurry of mixed forms (XRPD); settings: for resulting form after competitive slurry: RT and 50° C. or 60° C.
Description: Inter-conversion study was performed by competitive slurry of mixed different forms in solvents. The concentration of all slurry suspensions was 20 mg/mL.
Equal amount of Form I, II, III and IV were added into MeOH, IPA, EA, ACN and water to make suspensions, respectively. All suspensions were stirred at RT and 50° C. The filter cakes were checked by XRPD.
Equal amount of Form I and II were added into the saturated solution of Compound (I). The suspensions were stirred in MeOH, IPA and EA at 60° C. overnight. The filter cakes were checked by XRPD.
Equal amount of Form II and VII were added into the saturated solution of Compound (I). The suspensions were stirred in IPA and EA at RT and 50° C. The filter cakes were checked by XRPD.
Equal amount of Form II and VI were slurred in different water activity system (1 mL of EtOH/water) at RT for 3 days. Solid samples were collected by filtration and analyzed by XRPD.
Equal amount of Form III and VI were slurred in water at RT and 50° C. Solid samples were collected by filtration and analyzed by XRPD.

[3] = Solubility testing in bio-relevant media (SGF, FaSSIF, FeSSIF) and water at 37° C.; settings: after 0.5 hours
Description: The solubility of maleate Form I, and tosylate Form I were tested in bio-relevant media (SGF, FaSSIF, and FeSSIF) and water at 37° C. up to 24 hours. About 15 mg of the sample was weighed into sample vials and then 3 mL of media was added to make a suspension. All suspensions were shaken at 37° C. with a rate of 200 rpm. At 0.5, 2 and 24 hours, each suspension was filtered and the filtrate was analyzed by HPLC to test the solubility. pH of the filtrate was measured, and the filter cake was analyzed by XRPD.

[4] = Dynamic vapor sorption (DVS) moisture sorption/desorption; settings: for hygroscopicity: in words
Description: Moisture sorption/desorption data was collected on a DVS Intrinsic PLUS (SMS, UK). The sample was placed into a tared sample chamber and automatically weighed. The sample was dried at 40° C./0% RH until the dm/dt was less than 0.002% and cooled to 25° C. The instrument parameters were set as below. • Sample temperature: 25° C. • Min time per step: 30 min • Max time per step: 120 min • Cycle: Full cycle • Adsorption: 0, 10, 20, 30, 40, 50, 60, 70, 80, 90 • Desorption: 80, 70, 60, 50, 40, 30, 20, 10, 0 • Save data rate: 5 s • Total flow rate: 200 sccm • Post experimental total flow: 200 sscm

[5] = Solid stability at 40° C./75% RH and 60° C. (HPLC purity, XRPD); settings: open; for Purity (Area %): HPLC
Description: (§1) Form II was prepared, characterized, and used for stability study. Solid stability of Form II was evaluated at RT/92.5% RH, 60° C. and 40° C./75% RH conditions for 10 days, respectively.
An amount of Form II was open placed at 60° C. and 40° C./75% RH up to 10 days. At 0, 3 and 10 day, the sample was dissolved in diluent to prepare solution for purity analysis by HPLC. Solid samples were analyzed by XRPD to check the crystal form. […] Form II was physically and chemically stable at 40° C./75% RH and 60° C. for 10 days.
Appropriate amounts of maleate Form I and tosylate Form I were placed at 60° C. and 40° C./75% RH for up to 24 days. At 0 and 24 day, the sample was dissolved in diluent to prepare solution for purity analysis by HPLC. Solid samples were analyzed by XRPD to check the crystal form.

[6] = Physical stability at RT/92.5% RH (XRPD); settings: open, 10 days
Description: as §1
Appropriate amount of Form II was open put at RT/92.5% RH condition for 10 days. Then, the sample was checked by XRPD.

[7] = Mechanical treatment (grinding), XRPD check; settings: ground in mortar, checked at 2 min and 5 min
Description: Form II (~15 mg) was ground into a mortar for about 5 minutes, and then checked by XRPD at 2 min and 5 min, respectively.

[8] = 40° C./75% RH and 60° C., up to 10 days

resulting form after competitive slurry ([2]; non-aqueous solvent): transformed to Form II
resulting form after slurry in water ([2]; 50° C.): to Form VI
Structure (SMILES): CC(C)c1cnn2ccc(-c3ccnc(Nc4ccc(N5CC[C@H](N(C)C)CC5=O)cn4)n3)cc12 [Form III, (S)-4-(dimethylamino)-1-(6-((4-(3-isopropylpyrazolo[1,5-a]pyridin-5-yl)pyrimidin-2-yl)amino)pyridin-3-yl)piperidin-2-one]

resulting form after competitive slurry ([2]; non-aqueous solvent): transformed to Form II
Structure (SMILES): CC(C)c1cnn2ccc(-c3ccnc(Nc4ccc(N5CC[C@H](N(C)C)CC5=O)cn4)n3)cc12 [Form IV, (S)-4-(dimethylamino)-1-(6-((4-(3-isopropylpyrazolo[1,5-a]pyridin-5-yl)pyrimidin-2-yl)amino)pyridin-3-yl)piperidin-2-one]

resulting form after slurry in water ([2]; RT): transformed to Form III
Structure (SMILES): CC(C)c1cnn2ccc(-c3ccnc(Nc4ccc(N5CC[C@H](N(C)C)CC5=O)cn4)n3)cc12 [Form VI, (S)-4-(dimethylamino)-1-(6-((4-(3-isopropylpyrazolo[1,5-a]pyridin-5-yl)pyrimidin-2-yl)amino)pyridin-3-yl)piperidin-2-one]

The next lines start with the compound.

Structure (SMILES): CC(C)c1cnn2ccc(-c3ccnc(Nc4ccc(N5CC[C@H](N(C)C)CC5=O)cn4)n3)cc12 [Compound (I), (S)-4-(dimethylamino)-1-(6-((4-(3-isopropylpyrazolo[1,5-a]pyridin-5-yl)pyrimidin-2-yl)amino)pyridin-3-yl)piperidin-2-one]
solubility ([1]; organic solvent or mixture, DCM): > 120 mg/mL
solubility ([1]; organic solvent or mixture, MeOH, MEK, EtOH and ACN): 1 to 7 mg/mL (≈ 2.13 to 14.9 mM)
solubility ([1]; organic solvent or mixture, THF): ~20 mg/mL (≈ 42.5 mM)
solubility ([1]; other selected solvents): < 1 mg/mL

Structure (SMILES): CC(C)c1cnn2ccc(-c3ccnc(Nc4ccc(N5CC[C@H](N(C)C)CC5=O)cn4)n3)cc12 [Form I, (S)-4-(dimethylamino)-1-(6-((4-(3-isopropylpyrazolo[1,5-a]pyridin-5-yl)pyrimidin-2-yl)amino)pyridin-3-yl)piperidin-2-one]
resulting form after competitive slurry ([2]; non-aqueous solvent): transformed to Form II
crystal form in water during solubility test [3]: converted to a metastable hydrate
hygroscopicity [4]: non-hygroscopicity

Structure (SMILES): CC(C)c1cnn2ccc(-c3ccnc(Nc4ccc(N5CC[C@H](N(C)C)CC5=O)cn4)n3)cc12 [Form II, (S)-4-(dimethylamino)-1-(6-((4-(3-isopropylpyrazolo[1,5-a]pyridin-5-yl)pyrimidin-2-yl)amino)pyridin-3-yl)piperidin-2-one]
crystal form change (XRPD) [5, 8]: no form changed
degradation (purity by HPLC) [5, 8]: No obvious degradation
Purity (Area %) ([5]; 40° C./75% RH, 0 d (initial)): 99.17 Area %
Purity (Area %) ([5]; 40° C./75% RH, 3 d): 99.15 Area %
Purity (Area %) ([5]; 40° C./75% RH, 10 d): 99.13 Area %
Purity (Area %) ([5]; 60° C., 0 d (initial)): 99.17 Area %
Purity (Area %) ([5]; 60° C., 3 d): 99.15 Area %
Purity (Area %) ([5]; 60° C., 10 d): 99.09 Area %
resulting form in competitive slurry with Form VI ([2]; EtOH/50% water, RT): transformed to the mixture of Form II and III
physical stability in competitive slurry with Form VI ([2]; EtOH/water with less than 5% of water, RT): physically stable
relative stability among anhydrous forms ([2]; temperature below 60° C., non-aqueous solvent): most stable anhydrous form
resulting form after slurry in water ([2]; 50° C.): mixture of Form II and III
resulting form after slurry in water ([2]; RT): transform to Form III
reversibility of DVS adsorption/desorption plot [4]: nearly reversible
water absorbed (DVS) ([4]; 0-90% RH, 25° C.): ~ 0.5%
crystal form after DVS testing ([4]; XRPD after DVS): remained unchanged
hygroscopicity [4]: slightly hygroscopic
crystal form change (XRPD) [6]: No form change
crystal form after grinding [7]: remained unchanged

— patent US20260274843A1, “SALT AND SOLID FORMS OF A CDK INHIBITOR” (GENENTECH, INC., priority 2023, published 2026)
